Laboratory results from US10226536B2, “Polysaccharide therapeutic conjugates” (priority 2011, dated 2019).

Legend:
Rpe65−/− mice = experiment: Retinoid treatment in LCA mouse model with RPE65 deficiency; format: in vivo
Source text: (§1) We designed a polysaccharide therapeutic conjugate composition for the sustained release of 9-cis-retinyl esters to treat animal models of human retinal diseases, such as LCA. […] Unless initial high drug blood levels are unfavorable, this pharmacokinetic property could be beneficial because it relates to the therapeutic window, especially for drugs targeting peripheral tissues such as the retina through protein-mediated and protein-independent transport systems. A bolus dose could also establish a reversible depot of the drug in other tissues, thereby reducing the need for frequent dosing.

Lrat−/− mice [1] = experiment: Oral gavage of 9-cis-R-Ac in LCA mouse model with LRAT deficiency; format: in vivo
Source text: as §1

[2] = 9-cis-retinoid concentrations in plasma after gavage; format: in vivo, mouse
Source text: as §1

Lrat−/− mice [3] = conditions: dark room reared Lrat−/− mice; 6 gavages of 0.12 mg each over two weeks; vs untreated control Lrat−/− mice; cited from earlier work

| Structure (SMILES) | visual function (Rpe65−/− mice; single dose, Rpe65−/− mice kept under laboratory lighting conditions) | retinal morphology (Lrat−/− mice [1]) | visual function (Lrat−/− mice [1]) | retinal morphology (Rpe65−/− mice; oral gavage, Rpe65−/− mice) | visual function (Rpe65−/− mice; oral gavage, Rpe65−/− mice) | 9-cis-retinoid concentrations in plasma ([2]; 5 hours after oral administration) | 9-cis-retinoid concentrations in plasma ([2]; after gavage) | ROS layer thickness (Lrat−/− mice [3]) | RPE-ROS interface (Lrat−/− mice [3]) |
| --- | --- | --- | --- | --- | --- | --- | --- | --- | --- |
| CC1=C(/C=C/C(C)=C\C=C\C(C)=C\C=O)C(C)(C)CCC1 [9-cis-retinal] | rescued visual function for months | – | – | – | – | – | – | – | – |
| CC(=O)OC/C=C(C)/C=C/C=C(C)\C=C\C1=C(C)CCCC1(C)C [9-cis-R-Ac, 9-cis-retinyl acetate] | – | preserves retinal morphology | improves visual function | preserves retinal morphology | improves visual function | dropped markedly to low levels | increased rapidly to high levels | substantially thicker | closer apposition |
